{"source": "paper PMC5826802", "about": "(Analytical biochemistry, 2017)", "key": {"[1]": {"target": "T1, PARP15 (Homo sapiens, UniProt Q460N3)", "T1 sequence (Q460N3 481-678)": "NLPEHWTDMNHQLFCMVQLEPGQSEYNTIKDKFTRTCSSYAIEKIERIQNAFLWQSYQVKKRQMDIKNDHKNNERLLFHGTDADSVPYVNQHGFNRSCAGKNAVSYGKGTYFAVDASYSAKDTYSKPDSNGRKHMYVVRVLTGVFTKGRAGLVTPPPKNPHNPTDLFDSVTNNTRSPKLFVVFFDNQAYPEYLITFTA", "assay": "MLISA inhibition of PARP15-catalyzed automodification", "format": "biochemical", "conditions": "for inhibition effects on PARP15 activity: at concentrations up to 100 μM"}, "[2]": {"tested_on": "PARP15", "conditions": "read-out: Km of PARP15 for automodification; reported previously; cited from earlier work"}}, "data": [{"smiles": "Oc1nc(-c2ccc(C(F)(F)F)cc2)nc2c1CSCC2", "note": "[XAV939]", "values": [{"measurement": "inhibition effects on PARP15 activity", "setting": "[1]", "value": "no significant inhibition effects"}]}, {"smiles": "Cc1nc2c(c(=O)[nH]1)CSCC2", "note": "[DR2313]", "values": [{"measurement": "pIC50", "setting": "[1]; PARP15, 500 nM enzyme, 500 μM NAD+", "value": 5.1}]}, {"smiles": "Nc1ncnc2[nH]cnc12", "note": "[Adenine, adenine]", "values": [{"measurement": "inhibition effects on PARP15 activity", "setting": "[1]", "value": "no significant inhibition effects"}]}, {"smiles": "NC(=O)c1ccc[n+]([C@@H]2O[C@H](COP(=O)([O-])OP(=O)(O)OC[C@H]3O[C@@H](n4cnc5c(N)ncnc54)[C@H](O)[C@@H]3O)[C@@H](O)[C@H]2O)c1", "note": "[NAD^+, nicotinamide adenine dinucleotide]", "values": [{"measurement": "Km", "setting": "[2]", "value": "5.8 ± 1.9", "unit": "µM"}]}, {"smiles": "CN(C)c1ccc(O)c2c1C[C@H]1C[C@H]3[C@H](N(C)C)C(O)=C(C(N)=O)C(=O)[C@@]3(O)C(O)=C1C2=O", "note": "[Minocin]", "values": [{"measurement": "inhibition effects on PARP15 activity", "setting": "[1]", "value": "no significant inhibition effects"}]}, {"smiles": "O=c1[nH]c2ccccc2c2ccccc12", "note": "[6(5H)-Phenanthridinone, 6(5H)-phenanthridinone]", "values": [{"measurement": "IC50", "setting": "[1]", "value": "1.5 ± 0.5", "unit": "µM"}]}, {"smiles": "Oc1cccc2c(O)nccc12", "note": "[1,5-Isoquinolinediol, 1,5-isoquinolinediol]", "values": [{"measurement": "IC50", "setting": "[1]", "value": "8.5 ± 2.7", "unit": "µM"}]}]}
